For experiment [1], the target named is T1, RNase A (Bos taurus, UniProt P61823).
T1 sequence (P61823 27-150): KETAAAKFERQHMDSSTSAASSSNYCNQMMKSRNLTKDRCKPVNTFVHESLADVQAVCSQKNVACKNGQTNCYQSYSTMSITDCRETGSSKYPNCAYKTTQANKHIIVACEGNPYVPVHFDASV
Nature of the experiment: SPR biosensor binding analysis with immobilized RNase A. Also on record: Ribonuclease A (Type II-A) from bovine pancreas; purchased Sigma-Aldrich Korea; host or cells: bovine pancreas; species or system bovine. The settings on record: synthetic peptides, 0.37-10 μM; RNase A immobilized on Au chip; read-out: affinity constant (KD). The procedure:
Binding analysis of the expressed FV antibody and synthesized peptides against RNase A was performed using an SPR (Surface Plasmon Resonance) biosensor from I-Cluebio (Seongnam, Korea). RNase A was immobilized on the gold surface of the SPR chip used in the SPR biosensor to conduct the binding analysis. For the manufacture of the SPR chip, a 2 nm thick titanium adhesive layer and a 48 nm thick gold surface were consecutively sputter-coated onto BK-7 glass (1×1 cm^2). […] To analyze the binding of the expressed Fv antibody to RNase A, Fv antibodies in the concentration range of 0.37-100 nM were reacted using PBS buffer as the […] through association (10 minutes), equilibrium (5 minutes), and dissociation (10 minutes) steps. The washing buffer and total SPR measurements were performed at a flow rate of 15 μL/min. For the binding analysis of the synthesized peptides against RNase A, peptides in the concentration range of 0.37-100 nM were reacted using PBS buffer as the washing buffer through association (10 minutes), equilibrium (5 minutes), and dissociation (10 minutes) steps, and total SPR measurements were conducted at a flow rate of 15 μL/min.
Using the screened CDR3 amino acid sequences, the CDR3 regions of the screened Fv antibodies were synthesized as peptides, and the amino acid sequences were determined from the nucleotide sequences of the CDR3 regions as summarized in Table 2. These synthetic peptides (Peptide-1, Peptide-2, Peptide-3) and Fv antibodies (Fv-1, Fv-2, Fv-3) were identical to the amino acid sequences of the CDR3 regions of the screened clones. […] The SPR signal was plotted according to the concentration of the synthetic peptides, and the affinity constants (KD) of these synthetic peptides were calculated through a fitting process. […]
Using the screened CDR3 amino acid sequences, the CDR3 regions of the screened Fv antibodies were synthesized as peptides, and the amino acid sequences were determined from the nucleotide sequences of the CDR3 regions as summarized in Table 7. […]
On the technique in general: Surface plasmon resonance follows binding to a sensor surface in real time, without labels.

Experiment [2] addresses T1, RNase A. Nature of the experiment: RNase activity test kit, modified Taq-man RNA probe analysis (ab273299). Type of experiment: biochemical. Also on record: purchased Abcam ab273299. The settings on record: for inhibition at 1 µM: inhibitor 1 μM, after 60 minutes, positive control (no inhibitor) = 100%, read-out: relative inhibition level / reduction of RNase A activity; for RNase A activity reduced by: summary paragraph, peptide 1 μM, versus non-inhibitory condition (100%); for IC50: synthetic peptides, RNA probe kit, linear regression. The procedure: The activity of RNase A, which degrades RNA, was evaluated using specially designed RNA probes. This RNase A analysis was performed using a commercial RNase activity test kit based on a modified Taq-man probe analysis (ab273299) from Abcam (Cambridge, UK). To compare inhibitory activity, three synthetic peptides (peptide-1, peptide-2, peptide-3) and three expressed Fv-antibodies (Fv-1, Fv-2, and Fv-3) were compared using two types of commercially available RNase inhibitors from Biofact™ (Daejeon, South Korea) and two types of RNaseOUT™ from Thermofisher (USA). The probes for the RNase inhibition analysis contained RNA probes with fluorescent dyes and quenching materials at each end of the RNA sequence. […] To estimate the RNase A inhibitory activity by the three synthesized peptides, each peptide was treated at a concentration of 1 μM using the analysis kit, and RNase activity was measured. The positive control was prepared to have an RNase reaction without an inhibitor, and the negative control was prepared to have an RNase reaction without the RNA probe. […] The RNase A inhibitory activity of the three synthesized peptides was analyzed after treating each peptide at a concentration range of 100 μM to 1 μM in the assay kit. […] The RNase A inhibitory activity of the three expressed Fv-antibodies was analyzed after treating each peptide at a concentration range of 100 μM to 1 μM in the analysis kit.
The activity of RNase A, which degrades RNA, was evaluated using specially designed RNA probes. This RNase A analysis was performed using a commercial RNase activity test kit based on a modified Taq-man probe analysis (ab273299) from Abcam (Cambridge, UK). For the comparison of inhibitory activity, three synthetic peptides (Peptide-1, Peptide-2, Peptide-3) and three expressed Fv-antibodies (Fv-1, Fv-2, and Fv-3) were compared using two types of commercially available RNase inhibitors from Biofact™ (Daejeon, South Korea) and two types of RNaseOUT™ from Thermofisher (USA). The probes for the RNase inhibition analysis contain RNA probes with fluorescent dyes and fluorescent quenchers at each end of the RNA nucleotide sequence.
To estimate the RNase A inhibitory activity of the three synthesized peptides, each peptide was treated at a concentration of 1 μM using an assay kit, and the RNase activity was evaluated. The positive control was prepared to have an RNase reaction without the inhibitor, while the negative control was prepared to have an RNase reaction without the RNA probe.
The RNase A inhibitory activity of the three synthesized peptides was analyzed after treating each peptide at a concentration range of 100 μM to 1 μM with the RNase A from the assay kit.

From patent US20260217863A1, “ANTIBODY OR PEPTIDE BINDING SPECIFICALLY TO RNASE A, IMMUNOASSAY DEVICE AND METHOD FOR DETECTING RNASE A, AND METHOD FOR COLLECTING RNASE A” (UIF (University Industry Foundation), Yonsei University, priority 2022, published 2026) come the findings set out here.

Where no end group is shown, it is not given here.

One may read the Kd as the free concentration of one partner at which half of the binding sites on the other are occupied at equilibrium, for simple one-to-one binding. What is called IC50 is the midpoint of a concentration-inhibition curve. Lower therefore signals greater potency in that assay. Regarding CGPDSDVMTDF [Peptide-1], at RNase A [1], the Kd came to 1.3 ± 0.1 µM. Further, on RNase A [2], the inhibition at 1 µM was 54.4%, the “RNase A activity reduced by” value was 54.4% and the IC50 is 8.1 µM.
In the case of DGTAKKSRKDD [Peptide-3], the Kd at RNase A [1] turned out to be 3.7 ± 1.1 µM. For the same sequence, at RNase A [2], the inhibition at 1 µM amounted to 50.3%, the “RNase A activity reduced by” value turned out to be 50.3% and the IC50 turned out to be 0.4 µM.
Consider YGPVGRVKRDD [Peptide-2], for which the Kd on RNase A [1] amounted to 1.3 ± 0.3 µM. In addition, at RNase A [2], the inhibition at 1 µM was found to be 53.2%, the “RNase A activity reduced by” value turned out to be 53.2% and half-maximal inhibition (IC50) required 3.6 µM.
